From PubChem BioAssay (NCI)
“And” between values parts separate entries of the source, which are not always exact repeats. Equal values may be shown once.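 These data come from cells grown in 96-well plates and exposed to compound for 48 hours at five concentrations. Here, GI50 denotes the concentration required for 50% inhibition of growth. TGI: concentration producing complete growth inhibition.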

Columns and labels:
Experiment in all cases: inhibition of tumour cell growth, NCI panel, 48 h
ACHN renal = test system: ACHN renal
BT-549 breast = test system: BT-549 breast
HL-60(TB) leukemia = test system: HL-60(TB) leukemia
MDA-MB-231 breast = test system: MDA-MB-231 breast
OVCAR-3 ovarian = test system: OVCAR-3 ovarian
PC-3 prostate = test system: PC-3 prostate
RXF 393 renal = test system: RXF 393 renal
SF-268 CNS = test system: SF-268 CNS
SF-539 CNS = test system: SF-539 CNS
UACC-62 melanoma = test system: UACC-62 melanoma
HOP-62 NSCLC = test system: HOP-62 NSCLC
HOP-92 NSCLC = test system: HOP-92 NSCLC

| SMILES | TGI (ACHN renal) [µM] | TGI (BT-549 breast) [µM] | TGI (HL-60(TB) leukemia) | TGI (MDA-MB-231 breast) [µM] | TGI (OVCAR-3 ovarian) [µM] | TGI (PC-3 prostate) [µM] | TGI (RXF 393 renal) [µM] | TGI (SF-268 CNS) [µM] | TGI (SF-539 CNS) [µM] | TGI (UACC-62 melanoma) [µM] | TGI (HOP-62 NSCLC) [µM] | TGI (HOP-92 NSCLC) [µM] | GI50 (HL-60(TB) leukemia) [µM] | GI50 (OVCAR-3 ovarian) [µM] | GI50 (RXF 393 renal) [µM] | GI50 (SF-268 CNS) [µM] | GI50 (UACC-62 melanoma) [µM] |
| --- | --- | --- | --- | --- | --- | --- | --- | --- | --- | --- | --- | --- | --- | --- | --- | --- | --- |
| COc1cc(C(=O)N(C(=S)OCc2ccccn2)c2ccccc2)cc(OC)c1OC | > 100 | > 100 | > 100 µM | > 100 | > 100 | > 100 | > 100 | > 100 | 81 | > 100 |  |  |  |  |  |  |  |
| COC(=O)c1ccccc1CC1Cc2ccc3c(c2C1=O)CCCC3 (stereo not given) | > 100 | > 100 | > 100 µM | > 100 | > 100 | > 100 |  | > 100 | > 100 | > 100 | > 100 |  |  |  |  |  |  |
| C[C@@H]1CC[C@]2(C(=O)O)CC[C@]3(C)C(=CC[C@@H]4[C@@]5(C)CC[C@H](O)C(C)(C)[C@@H]5CC[C@]43C)[C@@H]2[C@]1(C)O | 30.4 | 28.2 | 19.8 µM | 22.6 | 32.6 |  |  | 34.2 | 12 | 10.1 |  | 20.7 |  |  |  |  |  |
| CCOC(=O)/C=C/CC(C)(C)CCOC(C)=O | > 10 |  | > 10 µM | > 10 | > 10 | > 10 | > 10 | > 10 | > 10 | > 10 | > 10 | > 10 |  |  |  |  |  |
| Cc1c(O)c(O)cc[n+]1C1OC(CO)C(O)C1O (stereo not given) | > 100 |  |  |  |  |  | > 100 | > 100 |  | > 100 |  | > 100 |  |  |  |  |  |
| CCOC(=O)c1cn2c(n1)sc1cccc(C)c12 | > 100 | > 100 |  | > 100 | > 100 | > 100 | > 100 | > 100 | > 100 | > 100 | > 100 |  |  |  |  |  |  |
| O=c1c2cc([N+](=O)[O-])cnc2sn1-c1ccc([N+](=O)[O-])cc1 | > 100 | 93.9 | 64.2 µM | 53.6 | > 100 | 83.8 |  | 67.6 | > 100 | > 100 | > 100 |  |  |  |  |  |  |
| O=C(CCN1CCCCC1)C(=Cc1ccccc1)C(=O)CCN1CCCCC1 |  |  | 6.05 µM and 48 µM |  | > 100 |  | 34.3 | > 100 | > 100 | > 100 | > 100 | > 96.8 | 2.2 | > 100 | 16.9 | 5.88 | 8.82 |
| CN1C(=O)C2CCC(=O)N2c2cccnc21 (stereo not given) | > 100 | > 100 | > 100 µM | > 100 | > 100 |  |  | > 100 | > 100 | > 100 | > 100 |  |  |  |  |  |  |
| C=C1C(=O)O[C@@H]2C(=O)[C@@H](C)CCC/C(C)=C/CC[C@@]3(C)O[C@@H]3C[C@@H]12 | > 100 |  | 33.4 µM | > 100 | > 100 | > 100 | 17.1 |  | 60.6 | > 100 | > 100 | 31.2 |  |  |  |  |  |
| c1csc(-c2ccc(-c3cccc4nsnc34)s2)c1 | > 100 | > 100 |  | > 100 | > 100 | > 100 | > 100 | > 100 | > 100 | > 100 | > 100 |  |  |  |  |  |  |
| N#Cc1c(-c2ccccc2)/c(=C\Nc2cccc(C(F)(F)F)c2)c(=O)n2c1nc1ccccc12 | > 100 | > 100 |  | > 100 |  | > 100 | 78.1 | > 100 | 37.8 |  | > 100 |  |  |  |  |  |  |
| Cc1cc(Cc2cc(C)c(N)cc2N)c(N)cc1N | > 100 | > 100 | > 100 µM | > 100 | > 100 | > 100 | > 100 | > 100 | > 100 | > 100 | > 100 |  |  |  |  |  |  |
| Clc1ccccc1C(SCc1ccccc1)SCc1ccccc1 | > 100 | > 100 | > 100 µM |  | > 100 | > 100 | > 100 | > 100 | > 100 | > 100 | > 100 | > 100 |  |  |  |  |  |
| COc1cc2c(c(OC)c1OC)C(=O)[C@@H]1[C@H]2N1C(N)=O | > 100 |  | > 100 µM | > 100 | > 100 | > 100 | > 100 | > 100 | > 100 | 68.2 | > 100 |  |  |  |  |  |  |
| CCOC(=O)c1csc(NC(=O)CN2CCOCC2)n1 | > 100 |  | > 100 µM | > 100 | > 100 | > 100 | > 100 | > 100 | > 100 | > 100 | > 100 | > 100 |  |  |  |  |  |
| Cc1ccc([N+](=O)[O-])cc1NC1=NCCO1 | > 100 |  | > 100 µM | > 100 | > 100 | > 100 | > 100 | > 100 | > 100 | > 100 | > 100 |  |  |  |  |  |  |
| CC1(C)N=[N+]([O-])C1(C)C |  | > 100 | > 100 µM | > 100 | > 100 | > 100 | > 100 | > 100 | > 100 | > 100 |  |  |  |  |  |  |  |
| CCOC(=O)CSc1c(C(=O)OCC)c(=O)n(-c2ccccc2)c(=S)n1-c1ccccc1 | > 100 | > 100 | 47.4 µM |  | > 100 | > 100 |  | > 100 |  | > 100 | > 100 | 20.6 |  |  |  |  |  |
| COCO[C@@H]1C[C@H]2C(=O)Nc3ccccc3C(=O)N2C1 | > 100 | > 100 |  | > 100 |  | > 100 | 41.7 | > 100 | > 100 | > 100 | 90.1 |  |  |  |  |  |  |
| CCC(C(=O)O)c1ccc(OC)cc1 (stereo not given) | > 100 |  | > 100 µM |  | > 100 |  | > 100 | > 100 | > 100 | > 100 | > 100 | > 100 |  |  |  |  |  |
| CN(C)C(=O)O/N=C1/C(c2c(O)[nH]c3ccccc23)=Nc2ccccc21 | > 100 | 43.7 | > 100 µM | 65 | 57 |  | 14.1 | 28.5 | 21.4 | 98.6 | 48.9 | 33 |  |  |  |  |  |
